Values after ≈ are worked out from the molar mass of the structure shown.
Assay: Solubility in distilled water for injection drug
Type: physicochemical
Conditions: Compound 3 alone, read-out: Solubility (as Compound 3)

O=C(NC(=O)c1ccccc1[N+](=O)[O-])Nc1ccc(Oc2ncc(Br)cn2)c(Cl)c1 [Compound 3]
solubility: 0.024 µg/mL (≈ 0.0487 µM)
